The text below walks through data of patent US20240317761A1, “PHARMACEUTICALLY ACCEPTABLE SALT OF MOR RECEPTOR AGONIST, AND POLYMORPH THEREOF AND USE THEREOF” (SHANGHAI HAIYAN PHARMACEUTICAL TECHNOLOGY CO., LTD., priority 2021, published 2024).

In assay [1] the target is T1, OPRM1 (MOR) in PathHunter CHO-K1 OPRM1 β-Arrestin Cell Line (Homo sapiens, UniProt P35372).
T1 construct: host or cells: CHO-K1 (PathHunter engineered line, lot 13K0402)
Description: HTRF-cAMP cell assay. The assay is classed as cell-based. How it is done:
The cell line used in the following tests was PathHunter® CHO-K1 OPRM1 β-Arrestin Cell Line; origin: DiscoverX, No: 93-0213 C2; lot: 13K0402.
The reagents used, their suppliers, article numbers, and storage temperatures are as follows: • Assay Complete™ Cell Culture Kit 107, DiscoverX, 92-3107G, −20° C.; • AssayComplete™ Thawing Reagent, DiscoverX, 92-4002TR, −20° C.; • AssayComplete™ Cell Detachment Reagent, DiscoverX, 92-0009, −20° C.; • Assay Complete™ Cell Plating Reagent, DiscoverX, 93-0563R2, −20° C.; • PathhunterDetection Kit, DiscoverX, 93-0001, −20° C.; • PBS(1×)0.0067M(PO4), Hyclone, SH30256.01, 4° C.; • DMSO, Sigma, D5879-100 ML, ambient temperature; • NKH477, Sigma, 1603, −20° C.; and • IBMX, Tocris, 15879, −20° C.
The instruments used, their models and suppliers are as follows: • Countsatr BioMed, IM1200, ALIT; • Microscope, IX51, OLYMPUS; • Centrifuge, 5804, Eppendorf; • Thermostatic Water Bath, DK-S420, ShanghaiShenxian thermostatic equipment factory; • Cell Incubator, 3111, Thermo; • Biological Safety Cabinet, BSC-1300IIA2, AIRTECH; • OptiPlate-384White Opaque, 6007290, Perkin Elmer; • Multimode plate Reader, Victor X5, PerkinElmer; • Culture Plate-384 White Opaque, TC-treated, 6007680, PerkinElmer.
1. Cell passaging steps a to h were repeated until the cells passed to the P8 generation. Cells were counted and resuspended in 2×/1 mM IBMX stimulation buffer to a cell density of 1.2*10^6/ml.
2. 1.2*10^6/ml of cell solution was seeded in a 384-well plate in a volume of 10 μl per well (i.e. 12000 cells per well) by using a multichannel pipettor.
1. Relevant reagents were prepared and the compounds were prepared according to the drug dilution preparation table.
a. […]
g. The plate was read by HTRF.
After 60 minutes of incubation, for all samples, reading plates were detected by homogeneous time-resolved fluorescence method.
The data were exported from the corresponding software in the computer connected with the multi-function plate reader, including two signal values of 665 nm and 620 nm. The ratio is calculated as ratio=665 nm signal value/620 nm signal value×10000. […]
For orientation: Time-resolved FRET reads energy transfer from a long-lived donor to a nearby acceptor.

Assay [2] has as its target T1, OPRM1 (MOR) in PathHunter CHO-K1 OPRM1 β-Arrestin Cell Line. Description: β-Arrestin cell assay. The assay is classed as cell-based. How it is done:
The cell line used in the following tests was PathHunter® CHO-K1 OPRM1 β-Arrestin Cell Line; origin: DiscoverX, No: 93-0213 C2; lot: 13K0402. […]
The instruments used, their models and suppliers are as follows: • Countsatr BioMed, IM1200, ALIT; • Microscope, IX51, OLYMPUS; • Centrifuge, 5804, Eppendorf; • Thermostatic Water Bath, DK-S420, ShanghaiShenxian thermostatic equipment factory; • Cell Incubator, 3111, Thermo; • Biological Safety Cabinet, BSC-1300IIA2, AIRTECH; • OptiPlate-384White Opaque, 6007290, Perkin Elmer; • Multimode plate Reader, Victor X5, PerkinElmer; • Culture Plate-384 White Opaque, TC-treated, 6007680, PerkinElmer. […]
1. 20 μl of the cell suspension was pipetted using a pipette and the number of the cells was measured using a cell counter. […]
3. At the end of incubation, the plates were read using a multi-function plate reader.
The data were exported from the corresponding software in the computer connected with the multi-function plate reader, and the data were analyzed by using GraphPad Prism software. […]

Setting [3] is: maximum effect relative to morphine = 100%.

pEC50: −log10 of the molar value.

T1 sequence (P35372 whole entry): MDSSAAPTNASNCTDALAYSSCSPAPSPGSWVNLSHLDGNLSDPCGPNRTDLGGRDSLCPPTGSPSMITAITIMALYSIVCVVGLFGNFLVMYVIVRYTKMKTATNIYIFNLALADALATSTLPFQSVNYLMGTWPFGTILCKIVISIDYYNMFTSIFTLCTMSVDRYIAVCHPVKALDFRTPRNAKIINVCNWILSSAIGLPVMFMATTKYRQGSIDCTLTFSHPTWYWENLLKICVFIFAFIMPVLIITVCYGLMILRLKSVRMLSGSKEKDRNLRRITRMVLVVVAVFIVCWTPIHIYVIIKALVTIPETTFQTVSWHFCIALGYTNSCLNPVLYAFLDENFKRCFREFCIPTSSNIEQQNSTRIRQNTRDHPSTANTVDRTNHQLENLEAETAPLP

The compound `CC(C)C1CCC(NCC[C@@]2(c3ccccn3)CCOC3(CCCC3)C2)c2ccnn21` (some centres unmarked) [Comparative compound D1] showed a pEC50 in assay [1] of 7.72. For the same compound, the values for the Emax in assay [1] (setting [3]) and in assay [2] (setting [3]) were 52.6% and 28.3%, respectively.

Compound `CC(C)[C@@H]1C[C@H](NCC[C@@]2(c3ccccn3)CCOC3(CCCC3)C2)c2ccnn21` [Compound of formula X, (4S,6S)-6-isopropyl-N-(2-((R)-9-(pyridin-2-yl)-6-oxaspiro[4.5]decane-9-yl)ethyl)-5,6-dihydro-4H-pyrrolo[1,2-b]pyrazol-4-amine] showed a pEC50 in assay [1] of 8.22. In addition, the “bias (cAMP versus β-arrestin)” value in assay [2] (compared with comparative compound D1, from Tables 5 and 6) was “better bias”.

What is called pEC50 is the EC50 on a negative log10 scale, so that one unit is a factor of ten. By Emax is commonly meant the greatest response seen or fitted, relative to the assay's reference.
